We go through 16 compounds from patent US10208019B2, “GLP-1 receptor agonists and uses thereof” (Pfizer Inc., priority 2016, dated 2019).

Broadly, the EC50 is the concentration needed to bring the measured effect to its halfway point. The Emax is the maximal effect, on the per cent scale that the assay sets.

Experiment [1] concerns the target human GLP-1R (Homo sapiens (Human), UniProt P43220, L260F). Put plainly: CHO GLP-1R Clone C6—Assay 2: HTRF cAMP cell-based functional agonist assay (low GLP-1R density). Conditions: for EC50: CHO GLP-1R Clone C6, cAMP HTRF, geometric mean; for Emax: CHO GLP-1R Clone C6, relative to saturating concentration of full agonist GLP-1 (1 μM), arithmetic mean, read-out: Assay 2 Emax (%). (In general: In TR-FRET formats the signal depends on donor and acceptor labels being close together.)

The target in experiment [2] is human GLP-1R (Homo sapiens, UniProt P43220, G168S). Put plainly: CHO GLP-1R Clone H6—Assay 1: HTRF cAMP cell-based functional agonist assay (high GLP-1R density). Conditions: for EC50: read-out: Assay 1 EC50, CHO GLP-1R Clone H6, cAMP HTRF, geometric mean; for Emax: read-out: Assay 1 Emax (%), CHO GLP-1R Clone H6.
[3] abbreviates: relative to saturating concentration of full agonist GLP-1 (1 μM), arithmetic mean.

Chain of human GLP-1R (Homo sapiens (Human), UniProt P43220, L260F) (P43220 24-463 L260F): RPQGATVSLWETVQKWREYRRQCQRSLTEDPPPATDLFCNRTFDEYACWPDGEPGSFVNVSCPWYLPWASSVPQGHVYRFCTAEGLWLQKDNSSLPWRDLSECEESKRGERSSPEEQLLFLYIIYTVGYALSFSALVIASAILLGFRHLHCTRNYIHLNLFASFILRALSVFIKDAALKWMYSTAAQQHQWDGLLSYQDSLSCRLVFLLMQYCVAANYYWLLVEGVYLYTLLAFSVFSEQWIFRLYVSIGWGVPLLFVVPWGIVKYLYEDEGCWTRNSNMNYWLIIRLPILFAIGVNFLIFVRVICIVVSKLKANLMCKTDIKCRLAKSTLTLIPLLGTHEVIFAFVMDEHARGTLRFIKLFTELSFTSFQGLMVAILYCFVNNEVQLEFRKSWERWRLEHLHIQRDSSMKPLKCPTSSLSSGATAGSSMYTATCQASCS
Chain of human GLP-1R (Homo sapiens, UniProt P43220, G168S) (P43220 24-463 G168S limits assumed): as the sequence (P43220 24-463 L260F) above, with G145S, F237L counted along it

On to `N#Cc1ccc(COc2cccc(N3CCN(Cc4nc5ccc(C(=O)O)cc5n4C[C@@H]4CCO4)CC3)n2)c(F)c1` [Example 5A-01, 2-[(4-{6-[(4-Cyano-2-fluorobenzyl)oxy]pyridin-2-yl}piperazin-1-yl)methyl]-1-[(2S)-oxetan-2-ylmethyl]-1H-benzimidazole-6-carboxylic acid], for which the values for the EC50 at human GLP-1R [1] and at human GLP-1R [2] were 7.4 nM and 0.34 nM, respectively. The Emax at human GLP-1R [1] came to 94%; on human GLP-1R [2] (setting [3]), 78%.
As to `N#Cc1ccc(COc2cccc(C3CCN(Cc4nc5ccc(C(=O)O)nc5n4C[C@@H]4CCO4)CC3)n2)c(F)c1` [Example 6A-01, 2-[(4-{6-[(4-cyano-2-fluorobenzyl)oxy]pyridin-2-yl}piperidin-1-yl)methyl]-3-[(2S)-oxetan-2-ylmethyl]-3H-imidazo[4,5-b]pyridine-5-carboxylic acid], the EC50 on human GLP-1R [1] stood at 8.8 nM; on human GLP-1R [2] it was 0.76 nM. Besides, the Emax at human GLP-1R [1] turned out to be 100%; at human GLP-1R [2] (setting [3]) it was 88%.
Regarding `N#Cc1ccc(COc2cccc(C3CCN(Cc4nc5ccc(C(=O)O)cc5n4Cc4ncco4)CC3)n2)c(F)c1` [Example 7A-01, 2-[(4-{6-[(4-cyano-2-fluorobenzyl)oxy]pyridin-2-yl}piperidin-1-yl)methyl]-1-(1,3-oxazol-2-ylmethyl)-1H-benzimidazole-6-carboxylic acid], the Emax at human GLP-1R [1] worked out at 86%; at human GLP-1R [2] (setting [3]) it was 84%.
In the case of `COCCn1c(CN2CCC(c3cccc(OCc4ccc(C)cc4)n3)CC2)nc2ccc(C(=O)O)cc21` [Example 8A-01, Ammonium 2-((4-(6-((4-Methylbenzyl)oxy)pyridin-2-yl)piperidin-1-yl)methyl)-1-(2-methoxyethyl)-1H-benzo[d]imidazole-6-carboxylate], the EC50 at human GLP-1R [1] turned out to be 1100 nM; on human GLP-1R [2] it was 100 nM. Also, the maximal response (Emax) on human GLP-1R [1] was 90%; at human GLP-1R [2] (setting [3]), 99%.
For `COCCn1c(CN2CCC(c3cccc(OCc4cc(F)c(Cl)cc4F)n3)CC2)nc2ccc(C(=O)O)cc21` [Example 8A-03, 2-((4-(6-((4-chloro-2,5-difluorobenzyl)oxy)pyridin-2-yl)piperidin-1-yl)methyl)-1-(2-methoxyethyl)-1H-benzo[d]imidazole-6-carboxylic acid], in that order: 350 nM, 18 nM, 77% and 84%.
Turning to `COCCn1c(CN2CCC(c3cccc(OCc4c(F)cc(Cl)cc4F)n3)CC2)nc2ccc(C(=O)O)cc21` [Example 8A-04, 2-((4-(6-((4-chloro-2,6-difluorobenzyl)oxy)pyridin-2-yl)piperidin-1-yl)methyl)-1-(2-methoxyethyl)-1H-benzo[d]imidazole-6-carboxylic acid], the EC50 at human GLP-1R [1] is 1700 nM; at human GLP-1R [2], 120 nM. Moreover, the results for the Emax at human GLP-1R [1] and on human GLP-1R [2] (setting [3]) were 88% and 79%, respectively.
Consider `Cn1c(CN2CCC(c3cccc(OCc4ccc(Cl)cc4)n3)CC2)nc2ccc(C(=O)O)cc21` [Example 9A-07, 2-[(4-{6-[(4-chlorobenzyl)oxy]pyridin-2-yl}piperidin-1-yl)methyl]-1-methyl-1H-benzimidazole-6-carboxylic acid], for which the EC50 at human GLP-1R [1] was found to be 2100 nM; at human GLP-1R [2] it was 170 nM. In addition, the maximal response (Emax) on human GLP-1R [1] is 71%. The “Assay 1 Emax (%)” value at human GLP-1R [2] (CHO GLP-1R Clone H6, relative to saturating concentration of full agonist GLP-1 (1 μM), arithmetic mean) turned out to be 78%.
Consider `Cn1c(CN2CCC(c3cccc(OCc4ccc(C#N)cc4)n3)CC2)nc2ccc(C(=O)O)cc21` [Example 9A-15, 2-[(4-{6-[(4-cyanobenzyl)oxy]pyridin-2-yl}piperidin-1-yl)methyl]-1-methyl-1H-benzimidazole-6-carboxylic acid], for which the EC50 stood at 3500 nM on human GLP-1R [1] and 180 nM on human GLP-1R [2]. For the same compound, the Emax at human GLP-1R [1] came out at 90%; on human GLP-1R [2] (setting [3]) it was 78%.
For `O=C(O)c1ccc2nc(CN3CCC(c4cccc(OCc5ccc(Cl)cc5F)n4)CC3)n(Cc3cnco3)c2c1` [Example 10A-01, 2-[(4-{6-[(4-Chloro-2-fluorobenzyl)oxy]pyridin-2-yl}piperidin-1-yl)methyl]-1-(1,3-oxazol-5-ylmethyl)-1H-benzimidazole-6-carboxylic acid], in that order: 43 nM, 3.2 nM, 84% and 77%.
The corresponding values for `CCn1cncc1Cn1c(CN2CCC(c3cccc(OCc4ccc(Cl)cc4F)n3)CC2)nc2ccc(C(=O)O)cc21` [Example 10A-02, 2-[(4-{6-[(4-chloro-2-fluorobenzyl)oxy]pyridin-2-yl}piperidin-1-yl)methyl]-1-[(1-ethyl-1H-imidazol-5-yl)methyl]-1H-benzimidazole-6-carboxylic acid] are 2.2 nM, 0.34 nM, 97% and 89%.
The corresponding values for `O=C(O)c1ccc2nc(CN3CCC(c4cccc(OCc5ccc(F)cc5F)n4)CC3)n(C[C@@H]3CCO3)c2c1` [Example 10A-05, 2-[(4-{6-[(2,4-difluorobenzyl)oxy]pyridin-2-yl}piperidin-1-yl)methyl]-1-[(2S)-oxetan-2-ylmethyl]-1H-benzimidazole-6-carboxylic acid] are 38 nM, 2.4 nM, 83% and 71%.
As for `CCn1cnnc1Cn1c(CN2CCC(c3cccc(OCc4ccc(Cl)cc4F)n3)CC2)nc2ccc(C(=O)O)cc21` [Example 10A-07], the figures for the EC50 on human GLP-1R [1] and on human GLP-1R [2] were 68 nM and 2.8 nM, respectively. For the same compound, the results for the Emax on human GLP-1R [1] and at human GLP-1R [2] (setting [3]) were 81% and 82%, respectively.
With `O=C(O)c1ccc2nc(CN3CCN(c4cccc(OCc5ccc(Cl)cc5F)n4)CC3)n(C[C@@H]3CCO3)c2c1` [Example 10A-08, 2-[(4-{6-[(4-chloro-2-fluorobenzyl)oxy]pyridin-2-yl}piperazin-1-yl)methyl]-1-[(2S)-oxetan-2-ylmethyl]-1H-benzimidazole-6-carboxylic acid], the EC50 was 9.2 nM at human GLP-1R [1] and 0.55 nM on human GLP-1R [2]. For the same compound, the Emax on human GLP-1R [1] was 94%; at human GLP-1R [2] (setting [3]), 77%.
In the case of `C[C@H]1CN(c2cccc(OCc3ccc(C#N)cc3F)n2)CCN1Cc1nc2ccc(C(=O)O)nc2n1C[C@@H]1CCO1` [Example 10A-09, 2-{[(2S)-4-{6-[(4-cyano-2-fluorobenzyl)oxy]pyridin-2-yl}-2-methylpiperazin-1-yl]methyl}-3-[(2S)-oxetan-2-ylmethyl]-3H-imidazo[4,5-b]pyridine-5-carboxylic acid], the figures for the EC50 on human GLP-1R [1] and on human GLP-1R [2] were 10 nM and 0.99 nM, respectively. Moreover, the Emax on human GLP-1R [1] amounted to 120%; at human GLP-1R [2] (setting [3]), 95%.
Take `C[C@H]1CN(c2cccc(OCc3ccc(Cl)cc3F)n2)CCN1Cc1nc2ccc(C(=O)O)nc2n1C[C@@H]1CCO1` [Example 10A-10, 2-{[(2S)-4-{6-[(4-chloro-2-fluorobenzyl)oxy]pyridin-2-yl}-2-methylpiperazin-1-yl]methyl}-3-[(2S)-oxetan-2-ylmethyl]-3H-imidazo[4,5-b]pyridine-5-carboxylic acid]: the EC50 on human GLP-1R [1] stood at 4.1 nM; at human GLP-1R [2], 0.3 nM. Besides, the maximal effect (Emax) is 100% at human GLP-1R [1] and 84% on human GLP-1R [2] (setting [3]).
In the case of `O=C(O)c1ccc2nc(CN3CCC(c4cccc(OCc5ccc(Cl)cc5F)n4)CC3)n(CCN3CCCC3=O)c2c1` [Example 10A-12], the EC50 at human GLP-1R [1] turned out to be 4400 nM; at human GLP-1R [2], 110 nM. The Emax stood at 110% on human GLP-1R [1] and 68% on human GLP-1R [2] (setting [3]).
